Drawing on US10280166B2, “2-(1H-indazol-3-yl)-3H-imidazo[4,5-B]pyridine and therapeutic uses thereof” (Samumed, LLC, priority 2014, dated 2019), this text covers IC50 for 25 compounds.

In the experiment the test system is Wnt activity (SW480 colon carcinoma cells stably expressing the Sp5-Luc reporter gene). The experiment is described as follows: Sp5-Luc reporter gene screening assay for Wnt activity in SW480 cells. Type of experiment: cell-based. Conditions: Homo sapiens, 42 h incubation, luminescence. An excerpt:
The screening assay for Wnt activity is described as follows. Reporter cell lines can be generated by stably transducing cancer cell lines (e.g., colon cancer) or primary cells (e.g., IEC-6 intestinal cells) with a lentiviral construct that includes a Wnt-responsive promoter driving expression of the firefly luciferase gene.
SW480 colon carcinoma cells were transduced with a lentiviral vector expressing luciferase with a human Sp5 promoter consisting of a sequence of eight TCF/LEF binding sites. SW480 cells stably expressing the Sp5-Luc reporter gene and a hygromycin resistance gene were selected by treatment with 150 μg/ml of hygromycin for 7 days. These stably transduced SW480 cells were expanded in cell culture and used for all further screening activities. For Sp5-Luc reporter gene assays, the cells were plated at 10,000 cells/well in 96-well plates with growth medium containing 10% fetal calf serum and incubated overnight at 37° C. and 5% CO2. Each compound was dissolved in DMSO as a 10 mM stock in standard j-vials and used to prepare compound source plates in dose-response format with 3-fold serial dilutions and a 10 mM top concentration. Compound transfer from serially diluted source plates to assay plates containing the cells was accomplished using a pintool (Multimek 96, Beckman equipped with V&P Scientific FP1S50H pins) based liquid handling protocol. This protocol used a slotted pin to transfer 50 nl of compound from a source plate well to an assay plate well containing 50 μl of cells in growth medium. […] Control wells received 50 nl of DMSO treatment for normalization and calculating IC50 values. The treated cells were incubated at 37° C. and 5% CO2 for an additional forty-two hours. Following incubation, the growth medium was removed and 50 μl of BrightGlo luminescence reagent (Promega) was added to each well of the 96-well assay plates. The plates were placed on an orbital shaker for 5 min and then luminescence was quantified on the Victor3 (Perkin Elmer) plate reader. Readings were normalized to DMSO only treated cells, and normalized activities were utilized for IC50 calculations using the dose-response log (inhibitor) vs. response—variable slope (four parameters) nonlinear regression feature available in GraphPad Prism 5.0 or 6.0.

For `CC(C)C(=O)Nc1cncc(-c2ccc3[nH]nc(-c4nc5c(-c6cccnc6)ccnc5[nH]4)c3c2)c1` [Compound 87, N-(5-(3-(7-(Pyridin-3-yl)-3H-imidazo[4,5-b]pyridin-2-yl)-1H-indazol-5-yl)pyridin-3-yl)isobutyramide], the IC50 (usually the concentration that inhibits the measured activity by half) was 6.8 nM. For the compound `CC(C)CC(=O)Nc1cncc(-c2ccc3[nH]nc(-c4nc5c(-c6cc(F)cc(OCCN7CCCC7)c6)ccnc5[nH]4)c3c2)c1` [Compound 2242, N-(5-(3-(7-(3-Fluoro-5-(2-(pyrrolidin-1-yl)ethoxy)phenyl)-3H-imidazo[4,5-b]pyridin-2-yl)-1H-indazol-5-yl)pyridin-3-yl)-3-methylbutanamide], half-maximal inhibition (IC50) was put at 440 nM. Consider `CC(C)CC(=O)Nc1cncc(-c2ccc3[nH]nc(-c4nc5c(-c6cc(F)cc(OCCN(C)C)c6)ccnc5[nH]4)c3c2)c1` [Compound 2198, N-(5-(3-(7-(3-(2-(Dimethylamino)ethoxy)-5-fluorophenyl)-3H-imidazo[4,5-b]pyridin-2-yl)-1H-indazol-5-yl)pyridin-3-yl)-3-methylbutanamide], for which half-maximal inhibition (IC50) required 180 nM.

Regarding `CN(C)c1cncc(-c2ccc3[nH]nc(-c4nc5c(-c6cccs6)ccnc5[nH]4)c3c2)c1` [Compound 319, N,N-Dimethyl-5-(3-(7-(thiophen-2-yl)-3H-imidazo[4,5-b]pyridin-2-yl)-1H-indazol-5-yl)pyridin-3-amine], the IC50 worked out at 62.8 nM. Under `CN(C)Cc1cncc(-c2ccc3[nH]nc(-c4nc5c(-c6cc(F)cc(CNS(C)(=O)=O)c6)ccnc5[nH]4)c3c2F)c1` [Compound 1833, N-(3-(2-(5-(5-((Dimethylamino)methyl)pyridin-3-yl)-4-fluoro-1H-indazol-3-yl)-3H-imidazo[4,5-b]pyridin-7-yl)-5-fluorobenzyl)methanesulfonamide] stands 773 nM. Under `CN1CCN(c2ccnc3[nH]c(-c4n[nH]c5ccc(-c6cncc(N)c6)cc45)nc23)CC1` [Compound 211, 5-(3-(7-(4-Methylpiperazin-1-yl)-3H-imidazo[4,5-b]pyridin-2-yl)-1H-indazol-5-yl)pyridin-3-amine] stands 66.3 nM; under `Fc1cccc(-c2ccnc3[nH]c(-c4n[nH]c5ccc(-c6cncc(OCc7ccccc7)c6)cc45)nc23)c1` [Compound 1886, 2-(5-(5-(Benzyloxy)pyridin-3-yl)-1H-indazol-3-yl)-7-(3-fluorophenyl)-3H-imidazo[4,5-b]pyridine], > 10000 nM. Next, `CN(C)Cc1cncc(-c2ccc3[nH]nc(-c4nc5c(-c6cccc(F)c6)ccnc5[nH]4)c3c2F)c1` [Compound 1417, 1-(5-(4-Fluoro-3-(7-(3-fluorophenyl)-3H-imidazo[4,5-b]pyridin-2-yl)-1H-indazol-5-yl)pyridin-3-yl)-N,N-dimethylmethanamine]: 923 nM; `O=C(Nc1cncc(-c2ccc3[nH]nc(-c4nc5c(-c6ccc(F)s6)ccnc5[nH]4)c3c2)c1)C1CCC1` [Compound 358, N-(5-(3-(7-(5-Fluorothiophen-2-yl)-3H-imidazo[4,5-b]pyridin-2-yl)-1H-indazol-5-yl)pyridin-3-yl)cyclobutanecarboxamide]: 6.9 nM; `O=C(Cc1ccccc1)Nc1cncc(-c2ccc3[nH]nc(-c4nc5c(-c6ccncc6)ccnc5[nH]4)c3c2)c1` [Compound 114, 2-Phenyl-N-(5-(3-(7-(pyridin-4-yl)-3H-imidazo[4,5-b]pyridin-2-yl)-1H-indazol-5-yl)pyridin-3-yl)acetamide]: 54 nM. For the compound `CS(=O)(=O)NCc1cc(F)cc(-c2ccnc3[nH]c(-c4n[nH]c5ccc(-c6cncc(NC(=O)c7ccccc7)c6)cc45)nc23)c1` [Compound 427, N-(5-(3-(7-(3-Fluoro-5-(methylsulfonamidomethyl)phenyl)-3H-imidazo[4,5-b]pyridin-2-yl)-1H-indazol-5-yl)pyridin-3-yl)benzamide], the IC50 was determined as 19.2 nM.

In turn, `CN(C)Cc1cncc(-c2cc(F)c3[nH]nc(-c4nc5c(-c6ccsc6)ccnc5[nH]4)c3c2)c1` [Compound 741, 1-(5-(7-Fluoro-3-(7-(thiophen-3-yl)-3H-imidazo[4,5-b]pyridin-2-yl)-1H-indazol-5-yl)pyridin-3-yl)-N,N-dimethylmethanamine] displayed an IC50 of 936 nM. Next, `CN(C)Cc1cncc(-c2cc3c(-c4nc5c(-c6cccc(F)c6)ccnc5[nH]4)n[nH]c3cc2F)c1` [Compound 949, 1-(5-(6-Fluoro-3-(7-(3-fluorophenyl)-3H-imidazo[4,5-b]pyridin-2-yl)-1H-indazol-5-yl)pyridin-3-yl)-N,N-dimethylmethanamine]: > 10000 nM; `CN(C)Cc1cncc(-c2cc(F)c3[nH]nc(-c4nc5c(-c6cccc(F)c6)ccnc5[nH]4)c3c2)c1` [Compound 481, 1-(5-(7-fluoro-3-(7-(3-fluorophenyl)-3H-imidazo[4,5-b]pyridin-2-yl)-1H-indazol-5-yl)pyridin-3-yl)-N,N-dimethylmethanamine]: 155 nM; `CN(C)Cc1cncc(-c2cc(F)c3[nH]nc(-c4nc5c(-c6cc(F)cc(CNS(C)(=O)=O)c6)ccnc5[nH]4)c3c2)c1` [Compound 897, N-(3-(2-(5-(5-((Dimethylamino)methyl)pyridin-3-yl)-7-fluoro-1H-indazol-3-yl)-3H-imidazo[4,5-b]pyridin-7-yl)-5-fluorobenzyl)methanesulfonamide]: 74 nM. Under `CN(C)Cc1cncc(-c2ccc3[nH]nc(-c4nc5c(-c6ccsc6)ccnc5[nH]4)c3c2F)c1` [Compound 1677, 1-(5-(4-Fluoro-3-(7-(thiophen-3-yl)-3H-imidazo[4,5-b]pyridin-2-yl)-1H-indazol-5-yl)pyridin-3-yl)-N,N-dimethylmethanamine] stands 673 nM; under `O=C(Nc1cncc(-c2ccc3[nH]nc(-c4nc5c(-c6ccncc6)ccnc5[nH]4)c3c2)c1)C1CCCCC1` [Compound 126, N-(5-(3-(7-(Pyridin-4-yl)-3H-imidazo[4,5-b]pyridin-2-yl)-1H-indazol-5-yl)pyridin-3-yl)cyclohexanecarboxamide], 30.7 nM; under `CN(C)Cc1cncc(-c2cc3c(-c4nc5c(-c6cc(F)cc(CNS(C)(=O)=O)c6)ccnc5[nH]4)n[nH]c3cc2F)c1` [Compound 1365, N-(3-(2-(5-(5-((Dimethylamino)methyl)pyridin-3-yl)-6-fluoro-1H-indazol-3-yl)-3H-imidazo[4,5-b]pyridin-7-yl)-5-fluorobenzyl)methanesulfonamide], 804 nM. Under `CN(C)Cc1cncc(-c2cc3c(-c4nc5c(-c6ccsc6)ccnc5[nH]4)n[nH]c3cc2F)c1` [Compound 1209, 1-(5-(6-Fluoro-3-(7-(thiophen-3-yl)-3H-imidazo[4,5-b]pyridin-2-yl)-1H-indazol-5-yl)pyridin-3-yl)-N,N-dimethylmethanamine] stands > 10000 nM; under `CCCC(=O)Nc1cncc(-c2ccc3[nH]nc(-c4nc5c(-c6ccncc6)ccnc5[nH]4)c3c2)c1` [Compound 121, N-(5-(3-(7-(Pyridin-4-yl)-3H-imidazo[4,5-b]pyridin-2-yl)-1H-indazol-5-yl)pyridin-3-yl)butyramide], 35 nM. Take `CS(=O)(=O)NCc1cc(F)cc(-c2ccnc3[nH]c(-c4n[nH]c5ccc(-c6cncnc6)cc45)nc23)c1` [Compound 442, N-(3-Fluoro-5-(2-(5-(pyrimidin-5-yl)-1H-indazol-3-yl)-3H-imidazo[4,5-b]pyridin-7-yl)benzyl)methanesulfonamide]: the IC50 amounted to 5.8 nM. `CC(C)(C)CC(=O)Nc1cncc(-c2ccc3[nH]nc(-c4nc5c(-c6ccccc6F)ccnc5[nH]4)c3c2)c1` [Compound 68, N-(5-(3-(7-(2-Fluorophenyl)-3H-imidazo[4,5-b]pyridin-2-yl)-1H-indazol-5-yl)pyridin-3-yl)-3,3-dimethylbutanamide] registered an IC50 of 52 nM. `O=C(Cc1ccccc1)Nc1cncc(-c2ccc3[nH]nc(-c4nc5cccnc5[nH]4)c3c2)c1` [Compound 244, N-(5-(3-(3H-Imidazo[4,5-b]pyridin-2-yl)-1H-indazol-5-yl)pyridin-3-yl)-2-phenylacetamide] registered a 50% inhibitory concentration (IC50) of 352 nM. The compound `CC(C)CC(=O)Nc1cncc(-c2ccc3[nH]nc(-c4nc5c(-c6ccc(F)s6)ccnc5[nH]4)c3c2)c1` [Compound 340, N-(5-(3-(7-(5-Fluorothiophen-2-yl)-3H-imidazo[4,5-b]pyridin-2-yl)-1H-indazol-5-yl)pyridin-3-yl)-3-methylbutanamide] gave an IC50 of 4.9 nM. `CC(C)CC(=O)Nc1cncc(-c2ccc3[nH]nc(-c4nc5c(-c6cc(O)cc(F)c6)ccnc5[nH]4)c3c2)c1` [Compound 2286, N-(5-(3-(7-(3-Fluoro-5-hydroxyphenyl)-3H-imidazo[4,5-b]pyridin-2-yl)-1H-indazol-5-yl)pyridin-3-yl)-3-methylbutanamide] showed a concentration for half-maximal inhibition (IC50) of 55 nM.
